# Laboratory results taken from paper PMC5449569, “Basal late sodium current is a significant contributor to the duration of action potential of guinea pig ventricular myocytes” (Physiological Reports, 2017).
# Target: T1, NaV1.5 channel (native basal late sodium current, INaL) (Cavia porcellus, UniProt H0V4Z8)
# T1 construct: gene SCN5A; native channel in isolated guinea pig ventricular myocytes
# Test: whole-cell patch clamp of late Na+ current, single concentration ([…])
# Type: cell-based
# Details: read-out: % inhibition at 2 mmol/L
# T1 sequence (H0V4Z8 1-2015): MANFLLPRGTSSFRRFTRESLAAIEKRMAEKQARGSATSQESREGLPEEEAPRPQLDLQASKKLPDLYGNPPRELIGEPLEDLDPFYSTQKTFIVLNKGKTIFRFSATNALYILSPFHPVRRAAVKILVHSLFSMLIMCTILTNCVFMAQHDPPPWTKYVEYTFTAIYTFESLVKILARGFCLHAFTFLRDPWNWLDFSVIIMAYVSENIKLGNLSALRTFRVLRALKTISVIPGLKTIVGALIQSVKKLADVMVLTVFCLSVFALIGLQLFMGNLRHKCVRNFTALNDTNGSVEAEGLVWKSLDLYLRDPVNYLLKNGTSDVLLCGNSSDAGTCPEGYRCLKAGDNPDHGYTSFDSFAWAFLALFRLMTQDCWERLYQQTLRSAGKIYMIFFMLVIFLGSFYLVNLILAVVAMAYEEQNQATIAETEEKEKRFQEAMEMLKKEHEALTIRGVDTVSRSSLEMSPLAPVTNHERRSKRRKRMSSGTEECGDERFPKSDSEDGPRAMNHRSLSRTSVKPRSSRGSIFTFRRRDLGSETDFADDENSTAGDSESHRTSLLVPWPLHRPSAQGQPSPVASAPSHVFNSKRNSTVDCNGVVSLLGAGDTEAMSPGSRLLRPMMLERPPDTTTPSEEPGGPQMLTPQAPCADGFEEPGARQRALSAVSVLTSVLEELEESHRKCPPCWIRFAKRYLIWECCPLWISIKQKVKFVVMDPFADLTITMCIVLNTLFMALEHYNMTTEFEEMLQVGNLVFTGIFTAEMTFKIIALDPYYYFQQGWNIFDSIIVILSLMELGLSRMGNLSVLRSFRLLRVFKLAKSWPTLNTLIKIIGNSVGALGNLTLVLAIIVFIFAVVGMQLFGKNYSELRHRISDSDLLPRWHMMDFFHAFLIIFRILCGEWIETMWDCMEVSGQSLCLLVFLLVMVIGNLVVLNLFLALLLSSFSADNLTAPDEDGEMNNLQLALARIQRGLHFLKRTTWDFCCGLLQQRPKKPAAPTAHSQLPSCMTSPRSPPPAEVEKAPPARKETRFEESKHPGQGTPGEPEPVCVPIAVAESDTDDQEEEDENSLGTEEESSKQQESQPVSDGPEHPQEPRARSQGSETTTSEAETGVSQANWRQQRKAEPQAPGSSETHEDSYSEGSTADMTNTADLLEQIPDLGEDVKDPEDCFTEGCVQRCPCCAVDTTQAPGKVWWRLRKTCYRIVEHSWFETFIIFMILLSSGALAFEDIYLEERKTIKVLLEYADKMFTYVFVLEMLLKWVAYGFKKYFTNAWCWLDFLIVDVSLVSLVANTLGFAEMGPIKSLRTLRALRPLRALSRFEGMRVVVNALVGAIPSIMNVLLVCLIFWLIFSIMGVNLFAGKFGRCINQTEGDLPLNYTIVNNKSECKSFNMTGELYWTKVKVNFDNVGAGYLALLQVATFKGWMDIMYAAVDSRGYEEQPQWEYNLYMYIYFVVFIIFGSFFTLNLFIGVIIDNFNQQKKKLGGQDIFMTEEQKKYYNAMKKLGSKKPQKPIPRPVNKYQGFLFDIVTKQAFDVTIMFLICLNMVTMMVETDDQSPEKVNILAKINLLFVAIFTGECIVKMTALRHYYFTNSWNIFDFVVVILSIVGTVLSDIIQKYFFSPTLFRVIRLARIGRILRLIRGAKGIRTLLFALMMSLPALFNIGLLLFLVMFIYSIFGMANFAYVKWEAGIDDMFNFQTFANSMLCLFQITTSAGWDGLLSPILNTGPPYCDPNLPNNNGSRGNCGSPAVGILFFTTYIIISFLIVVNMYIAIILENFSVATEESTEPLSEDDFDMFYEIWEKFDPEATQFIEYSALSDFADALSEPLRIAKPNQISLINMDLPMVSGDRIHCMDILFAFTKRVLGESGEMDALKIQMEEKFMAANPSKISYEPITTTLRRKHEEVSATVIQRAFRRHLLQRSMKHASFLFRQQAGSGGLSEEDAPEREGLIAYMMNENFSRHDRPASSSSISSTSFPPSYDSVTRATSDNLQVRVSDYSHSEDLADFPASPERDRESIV
structure (smiles),measurement,value
CS(=O)(=O)SCCN [MTSEA],inhibition at 2000 µM,90 ± 5%
